Assays:
[1] = tested on: 10 bp Bi-quadruplex (DNA, G4) GGGTAGGGCGGGTTGGGTTTTTTTTTTGGGTAGGGCGGGTTGGG; conditions: K+ 20 mM KAc, 70 mM KCl (assumed KAc buffer)
[2] = tested on: TSDzyme (out) (DNA, G4) GGGTAGGGCGGGTTGGGCAGTTGAGACGAACATTCCTAAGTCTGAAATTTATCACCCGCCATAGTAGACGTATCACCAGG/CTTGCTACACGATTCAGACTTAGGAATGTTCGACATGCGAGGGTCCAATACCGACGATTACAG/GGTGATAAAACGTGTAGCAAGCTGTAATCGACGGGAAGAGCATGCCCATCCACTACTATGGCG/CCTCGCATGACTCAACTGCCTGGTGATACGAGGATGGGCATGCTCTTCCCGACGGTATTGGAC; experiment: hemin absorbance at 404 nm vs DNA concentration; conditions: K+ 20 mM KAc, 70 mM KCl (assumed KAc buffer)
[3] = tested on: TSDzyme (out) (DNA, G4) GGGTAGGGCGGGTTGGGCAGTTGAGACGAACATTCCTAAGTCTGAAATTTATCACCCGCCATAGTAGACGTATCACCAGG/CTTGCTACACGATTCAGACTTAGGAATGTTCGACATGCGAGGGTCCAATACCGACGATTACAG/GGTGATAAAACGTGTAGCAAGCTGTAATCGACGGGAAGAGCATGCCCATCCACTACTATGGCG/CCTCGCATGACTCAACTGCCTGGTGATACGAGGATGGGCATGCTCTTCCCGACGGTATTGGAC; experiment: free energy of hemin/G-quadruplex complex formation
[4] = tested on: G-quadruplex (free hemin-G) (DNA, G4) GGGTAGGGCGGGTTGGG; experiment: hemin absorbance at 404 nm vs DNA concentration; conditions: K+ 20 mM KAc, 70 mM KCl (assumed KAc buffer)
[5] = tested on: Hairpin-based allosteric TSDzyme (DNA, G4) AGGCAGTTGAGACGAACATTCCTAAGTCTGAAATTTATCACCCGCCATAGTAGACGTATCACC/CTTGCTACACGATTCAGACTTAGGAATGTTCGACATGCGAGGGTCCAATACCGACGATTACAG/GGTGATAAAACGTGTAGCAAGCTGTAATCGACTCTAGCGGAAGAACCCACAACCGCGGCTCACTACTATGGCG/GGGTAGGGCGGGTTGGGTTAGAGACGGTATTGGACCCTCGCATGACTCAACTGCCTGGTGATACGAGAGCCTGGGTAGGGCGGGTTGGG; experiment: free energy of hemin/G-quadruplex complex formation
[6] = tested on: 15 bp Bi-quadruplex (DNA, G4) GGGTAGGGCGGGTTGGGTTTTTTTTTTTTTTTGGGTAGGGCGGGTTGGG; conditions: K+ 20 mM KAc, 70 mM KCl (assumed KAc buffer)
[7] = tested on: TSDzyme (in) (DNA, G4) GGGTAGGGCGGGTTGGGCCAGGCAGTTGAGACGAACATTCCTAAGTCTGAAATTTATCACCCGCCATAGTAGACGTATCA/CTTGCTACACGATTCAGACTTAGGAATGTTCGACATGCGAGGGTCCAATACCGACGATTACAG/GGTGATAAAACGTGTAGCAAGCTGTAATCGACGGGAAGAGCATGCCCATCCACTACTATGGCG/CCTCGCATGACTCAACTGCCTGGTGATACGAGGATGGGCATGCTCTTCCCGACGGTATTGGAC; experiment: hemin absorbance at 404 nm vs DNA concentration; conditions: K+ 20 mM KAc, 70 mM KCl (assumed KAc buffer)
[8] = tested on: 5 bp Bi-quadruplex (DNA, G4) GGGTAGGGCGGGTTGGGTTTTTGGGTAGGGCGGGTTGGG; conditions: K+ 20 mM KAc, 70 mM KCl (assumed KAc buffer)
[9] = tested on: ATP-based allosteric TSDzyme (DNA, G4) AGGCAGTTGAGACGAACATTCCTAAGTCTGAAATTTATCACCCGCCATAGTAGACGTATCACC/CTTGCTACACGATTCAGACTTAGGAATGTTCGACATGCGAGGGTCCAATACCGACGATTACAG/GGTGATAAAACGTGTAGCAAGCTGTAATCGACTCTAACCTGGGGGAGTATTGCGGAGGAAGGTGGCTCACTACTATGGCG/GGGTAGGGCGGGTTGGGTTAGAGACGGTATTGGACCCTCGCATGACTCAACTGCCTGGTGATACGAGAGCCTGGGTAGGGCGGGTTGGG; experiment: free energy of hemin/G-quadruplex complex formation
[10] = tested on: G-quadruplex (free hemin-G) (DNA, G4) GGGTAGGGCGGGTTGGG; experiment: as above
[11] = tested on: ATP-based allosteric TSDzyme (DNA, G4) AGGCAGTTGAGACGAACATTCCTAAGTCTGAAATTTATCACCCGCCATAGTAGACGTATCACC/CTTGCTACACGATTCAGACTTAGGAATGTTCGACATGCGAGGGTCCAATACCGACGATTACAG/GGTGATAAAACGTGTAGCAAGCTGTAATCGACTCTAACCTGGGGGAGTATTGCGGAGGAAGGTGGCTCACTACTATGGCG/GGGTAGGGCGGGTTGGGTTAGAGACGGTATTGGACCCTCGCATGACTCAACTGCCTGGTGATACGAGAGCCTGGGTAGGGCGGGTTGGG; conditions: K+ 20 mM KAc, 70 mM KCl (assumed KAc buffer)
[12] = tested on: Hairpin-based allosteric TSDzyme (DNA, G4) AGGCAGTTGAGACGAACATTCCTAAGTCTGAAATTTATCACCCGCCATAGTAGACGTATCACC/CTTGCTACACGATTCAGACTTAGGAATGTTCGACATGCGAGGGTCCAATACCGACGATTACAG/GGTGATAAAACGTGTAGCAAGCTGTAATCGACTCTAGCGGAAGAACCCACAACCGCGGCTCACTACTATGGCG/GGGTAGGGCGGGTTGGGTTAGAGACGGTATTGGACCCTCGCATGACTCAACTGCCTGGTGATACGAGAGCCTGGGTAGGGCGGGTTGGG; conditions: K+ 20 mM KAc, 70 mM KCl (assumed KAc buffer)
[13] = tested on: TSDzyme (in) (DNA, G4) GGGTAGGGCGGGTTGGGCCAGGCAGTTGAGACGAACATTCCTAAGTCTGAAATTTATCACCCGCCATAGTAGACGTATCA/CTTGCTACACGATTCAGACTTAGGAATGTTCGACATGCGAGGGTCCAATACCGACGATTACAG/GGTGATAAAACGTGTAGCAAGCTGTAATCGACGGGAAGAGCATGCCCATCCACTACTATGGCG/CCTCGCATGACTCAACTGCCTGGTGATACGAGGATGGGCATGCTCTTCCCGACGGTATTGGAC; experiment: free energy of hemin/G-quadruplex complex formation
[14] = tested on: ATP-based allosteric TSDzyme (DNA, G4) AGGCAGTTGAGACGAACATTCCTAAGTCTGAAATTTATCACCCGCCATAGTAGACGTATCACC/CTTGCTACACGATTCAGACTTAGGAATGTTCGACATGCGAGGGTCCAATACCGACGATTACAG/GGTGATAAAACGTGTAGCAAGCTGTAATCGACTCTAACCTGGGGGAGTATTGCGGAGGAAGGTGGCTCACTACTATGGCG/GGGTAGGGCGGGTTGGGTTAGAGACGGTATTGGACCCTCGCATGACTCAACTGCCTGGTGATACGAGAGCCTGGGTAGGGCGGGTTGGG; experiment: allosteric change of peroxidase activity; conditions: 0.5 mM ATP

Row | KD [1] | KD [2] | -ΔGtetra [3] | KD [4] | -ΔGtetra [5] | KD [6] | KD [7] | KD [8] | -ΔGtetra [9] | -ΔGfree [10] | KD [11] | KD [12] | -ΔGtetra [13] | binding [14] | Compound
1 | 1300 ± 200 nM | 750 ± 230 nM | 8.34 ± 0.17 kcal/mol | 2200 ± 500 nM | 8.58 ± 0.17 kcal/mol | 1300 ± 400 nM | 700 ± 140 nM | 1200 ± 200 nM | 8.65 ± 0.22 kcal/mol | 7.72 ± 0.14 kcal/mol | 450 ± 170 nM | 500 ± 150 nM | 8.39 ± 0.12 kcal/mol | – | C=CC1=C(C)C2=Cc3c(C=C)c(C)c4[n]3[Fe]([Cl])[n]3c(c(C)c(CCC(=O)O)c3=CC3=NC(=C4)C(C)=C3CCC(=O)O)=CC1=N2
2 | – | – | – | – | – | – | – | – | – | – | – | – | – | yes | Nc1ncnc2c1ncn2[C@@H]1O[C@H](COP(=O)(O)OP(=O)(O)OP(=O)(O)O)[C@@H](O)[C@H]1O
